Data as given in ChEMBL document CHEMBL1201861, “Genomics of Drug Sensitity in Cancer screening data, Wellcome Trust Sanger Institute”.

How the values were obtained:
Test in all cases: cells
Type in all cases: functional, cell-based
Conditions in all cases: Homo sapiens
D-247MG = system: D-247MG
Description: SANGER: Inhibition of human D-247MG cell growth in a cell viability assay.

DoTc2-4510 = system: DoTc2-4510
EFO-21 = system: EFO-21;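 further: growth inhibition of EFO-21 cells measured with a viability assay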
Description: SANGER: Inhibition of human EFO-21 cell growth in a cell viability assay.

EFO-27 = system: EFO-27;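 further: growth inhibition of EFO-27 cells, read out with a cell viability assay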
Description: SANGER: Inhibition of human EFO-27 cell growth in a cell viability assay.

G-361 = system: G-361
HCC70 = system: HCC70;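 further: cell viability assay measuring how strongly the compound suppresses proliferation of HCC70 cells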
Description: SANGER: Inhibition of human HCC70 cell growth in a cell viability assay.

HCT-15 = system: HCT-15;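 further: cell viability readout, IC50 reflecting suppression of HCT-15 cell growth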
Description: SANGER: Inhibition of human HCT-15 cell growth in a cell viability assay.

HLE = system: HLE;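 further: growth inhibition of human HLE cells, read out by a cell viability assay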
Description: SANGER: Inhibition of human HLE cell growth in a cell viability assay.

HMV-2 cell line = system: HMV-2 cell line;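 further: growth inhibition of HMV-II cells, read out with a cell viability assay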
Description: SANGER: Inhibition of human HMV-II cell growth in a cell viability assay.

HSC-4 = system: HSC-4;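 further: growth inhibition of human HSC-4 cells, read out with a cell viability assay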
Description: SANGER: Inhibition of human HSC-4 cell growth in a cell viability assay.

HuO-3N1 = system: HuO-3N1;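 further: cell viability readout used to measure how strongly compounds suppress proliferation of human HuO-3N1 cells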
Description: SANGER: Inhibition of human HuO-3N1 cell growth in a cell viability assay.

KYSE-150 cell line = system: KYSE-150 cell line;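 further: growth inhibition of human KYSE-150 cells, read out with a cell viability assay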
Description: SANGER: Inhibition of human KYSE-150 cell growth in a cell viability assay.

KYSE-270 = system: KYSE-270;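 further: cell growth inhibition measured with a viability assay in the human KYSE-270 line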
Description: SANGER: Inhibition of human KYSE-270 cell growth in a cell viability assay.

KYSE-510 = system: KYSE-510;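 further: cell viability readout used to measure how strongly growth of the cell line is suppressed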
Description: SANGER: Inhibition of human KYSE-510 cell growth in a cell viability assay.

MDA-MB-453 = system: MDA-MB-453
Description: SANGER: Inhibition of human MDA-MB-453 cell growth in a cell viability assay.

MFE-280 = system: MFE-280;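 further: growth inhibition of MFE-280 cells, determined with a cell viability readout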
Description: SANGER: Inhibition of human MFE-280 cell growth in a cell viability assay.

MG-63 = system: MG-63;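 further: growth inhibition of human MG-63 cells, read out with a cell viability assay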
Description: SANGER: Inhibition of human MG-63 cell growth in a cell viability assay.

NB17 = system: NB17;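 further: growth inhibition of NB17 cells, read out with a cell viability assay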
Description: SANGER: Inhibition of human NB17 cell growth in a cell viability assay.

NB7 = system: NB7;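 further: growth inhibition of NB7 cells, read out with a cell viability assay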
Description: SANGER: Inhibition of human NB7 cell growth in a cell viability assay.

NCI-H1623 = system: NCI-H1623;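 further: cell viability assay used as the read-out for growth inhibition of NCI-H1623 cells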
Description: SANGER: Inhibition of human NCI-H1623 cell growth in a cell viability assay.

NCI-H1651 = system: NCI-H1651;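 further: Read-out is a cell viability assay, with IC50 expressing inhibition of NCI-H1651 cell growth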
Description: SANGER: Inhibition of human NCI-H1651 cell growth in a cell viability assay.

NCI-H1693 = system: NCI-H1693;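 further: growth inhibition of the human cell line, read out with a cell viability assay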
Description: SANGER: Inhibition of human NCI-H1693 cell growth in a cell viability assay.

NCI-H1703 = system: NCI-H1703;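 further: growth inhibition of NCI-H1703 cells, read out via a cell viability assay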
Description: SANGER: Inhibition of human NCI-H1703 cell growth in a cell viability assay.

NCI-H2052 = system: NCI-H2052;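 further: growth inhibition of NCI-H2052 cells, read out with a cell viability assay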
Description: SANGER: Inhibition of human NCI-H2052 cell growth in a cell viability assay.

NCI-H2122 = system: NCI-H2122;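 further: growth inhibition of the cells, read out with a cell viability assay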
Description: SANGER: Inhibition of human NCI-H2122 cell growth in a cell viability assay.

NCI-H2170 = system: NCI-H2170;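 further: cell viability assay measuring growth inhibition of human NCI-H2170 cancer cells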
Description: SANGER: Inhibition of human NCI-H2170 cell growth in a cell viability assay.

NCI-H2452 = system: NCI-H2452;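 further: growth inhibition of NCI-H2452 cells, read out with a cell viability assay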
Description: SANGER: Inhibition of human NCI-H2452 cell growth in a cell viability assay.

NCI-H292 = system: NCI-H292;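 further: growth inhibition of NCI-H292 cells, read out with a cell viability assay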
Description: SANGER: Inhibition of human NCI-H292 cell growth in a cell viability assay.

NUGC-3 = system: NUGC-3;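 further: growth inhibition of human NUGC-3 cells, read out with a cell viability assay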
Description: SANGER: Inhibition of human NUGC-3 cell growth in a cell viability assay.

OAW-28 = system: OAW-28;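 further: growth inhibition of OAW-28 cells, read out with a cell viability assay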
Description: SANGER: Inhibition of human OAW-28 cell growth in a cell viability assay.

PFSK-1 = system: PFSK-1;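 further: cell viability assay measuring how strongly compounds suppress growth of human PFSK-1 cells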
Description: SANGER: Inhibition of human PFSK-1 cell growth in a cell viability assay.

RCM-1 = system: RCM-1;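 further: growth inhibition of the RCM-1 line, determined with a cell viability readout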
Description: SANGER: Inhibition of human RCM-1 cell growth in a cell viability assay.

SCC-9 = system: SCC-9;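 further: Read-out is a cell viability assay, with values giving inhibition of cell growth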
Description: SANGER: Inhibition of human SCC-9 cell growth in a cell viability assay.

SF-295 = system: SF-295;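 further: growth inhibition of SF-295 cells, read out with a cell viability assay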
Description: SANGER: Inhibition of human SF295 cell growth in a cell viability assay.

SKG-IIIa = system: SKG-IIIa;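 further: cell growth inhibition, read out with a cell viability assay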
Description: SANGER: Inhibition of human SKG-IIIa cell growth in a cell viability assay.

SNU-449 = system: SNU-449
Description: SANGER: Inhibition of human SNU-449 cell growth in a cell viability assay.

SW13 = system: SW13;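 further: IC50 is inhibition of SW13 cell growth, read out with a cell viability assay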
Description: SANGER: Inhibition of human SW13 cell growth in a cell viability assay.

SW48 = system: SW48;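 further: growth inhibition of SW48 cells, read out with a cell viability assay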
Description: SANGER: Inhibition of human SW48 cell growth in a cell viability assay.

SW756 = system: SW756;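 further: growth inhibition of human SW756 cells, read out with a cell viability assay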
Description: SANGER: Inhibition of human SW756 cell growth in a cell viability assay.

SW837 = system: SW837;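 further: growth inhibition of SW837 cells, determined with a cell viability assay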
Description: SANGER: Inhibition of human SW837 cell growth in a cell viability assay.

T98G = system: T98G;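 further: growth inhibition of T98G cells, read out by a cell viability assay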
Description: SANGER: Inhibition of human T98G cell growth in a cell viability assay.

A673 = system: A673;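 further: growth inhibition of human A673 cells, read out through a cell viability assay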
Description: SANGER: Inhibition of human A673 cell growth in a cell viability assay.

BHT-101 = system: BHT-101
Description: SANGER: Inhibition of human BHT-101 cell growth in a cell viability assay.

BT-20 = system: BT-20;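 further: cell viability assay measuring suppression of growth in human BT-20 cells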
Description: SANGER: Inhibition of human BT-20 cell growth in a cell viability assay.

BXPC-3 = system: BXPC-3;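 further: growth inhibition of human BxPC-3 cells, read out by a cell viability assay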
Description: SANGER: Inhibition of human BxPC-3 cell growth in a cell viability assay.

CAL-120 = system: CAL-120;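 further: cell growth inhibition, read out as cell viability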
Description: SANGER: Inhibition of human CAL-120 cell growth in a cell viability assay.

CAL-39 = system: CAL-39;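 further: cell viability assay measuring growth inhibition of CAL-39 cells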
Description: SANGER: Inhibition of human CAL-39 cell growth in a cell viability assay.

CAL-72 = system: CAL-72;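 further: cell viability assay measuring inhibition of proliferation in the CAL-72 cell line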
Description: SANGER: Inhibition of human CAL-72 cell growth in a cell viability assay.

U-118-MG = system: U-118-MG
Description: SANGER: Inhibition of human U-118-MG cell growth in a cell viability assay.

WM-115 = system: WM-115
Description: SANGER: Inhibition of human WM-115 cell growth in a cell viability assay.

CAPAN-1 = system: CAPAN-1;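 further: growth suppression of CAPAN-1 cells, read out by a cell viability assay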
Description: SANGER: Inhibition of human CAPAN-1 cell growth in a cell viability assay.

## Cn1cc(/C=C2\C(=O)Nc3cccnc32)c2ccccc21
D-247MG
  IC50: > 2 µM
DoTc2-4510
  IC50: > 2 µM
EFO-21
  IC50: > 2 µM
EFO-27
  IC50: > 2 µM
G-361
  IC50: 0.211 µM
HCC70
  IC50: > 2 µM
HCT-15
  IC50: > 2 µM
HLE
  IC50: > 2 µM
HMV-2 cell line
  IC50: > 2 µM
HSC-4
  IC50: 1.95 µM
HuO-3N1
  IC50: > 2 µM
KYSE-150 cell line
  IC50: > 2 µM
KYSE-270
  IC50: > 2 µM
KYSE-510
  IC50: > 2 µM
MDA-MB-453
  IC50: > 2 µM
MFE-280
  IC50: > 2 µM
MG-63
  IC50: > 2 µM
NB17
  IC50: > 2 µM
NB7
  IC50: 1.98 µM
NCI-H1623
  IC50: > 2 µM
NCI-H1651
  IC50: > 2 µM
NCI-H1693
  IC50: > 2 µM
NCI-H1703
  IC50: 0.299 µM
NCI-H2052
  IC50: > 2 µM
NCI-H2122
  IC50: > 2 µM
NCI-H2170
  IC50: > 2 µM
NCI-H2452
  IC50: > 2 µM
NCI-H292
  IC50: > 2 µM
NUGC-3
  IC50: > 2 µM
OAW-28
  IC50: > 2 µM
PFSK-1
  IC50: > 2 µM
RCM-1
  IC50: > 2 µM
SCC-9
  IC50: > 2 µM
SF-295
  IC50: > 2 µM
SKG-IIIa
  IC50: > 2 µM
SNU-449
  IC50: > 2 µM
SW13
  IC50: > 2 µM
SW48
  IC50: > 2 µM
SW756
  IC50: 0.44 µM
SW837
  IC50: > 2 µM
T98G
  IC50: > 2 µM
A673
  IC50: > 2 µM
BHT-101
  IC50: > 2 µM
BT-20
  IC50: > 2 µM
BXPC-3
  IC50: > 2 µM
CAL-120
  IC50: > 2 µM
CAL-39
  IC50: > 2 µM
CAL-72
  IC50: > 2 µM
U-118-MG
  IC50: > 2 µM
WM-115
  IC50: > 2 µM
CAPAN-1
  IC50: > 2 µM

## NC(=O)c1ncn([C@@H]2O[C@H](COP(=O)(O)O)[C@@H](O)[C@H]2O)c1N
D-247MG
  IC50: > 2000 µM
DoTc2-4510
  IC50: 1250 µM
EFO-21
  IC50: > 2000 µM
EFO-27
  IC50: 1680 µM
HCC70
  IC50: 1270 µM
HCT-15
  IC50: 1890 µM
HLE
  IC50: > 2000 µM
HMV-2 cell line
  IC50: > 2000 µM
HSC-4
  IC50: 874 µM
HuO-3N1
  IC50: 89.4 µM
KYSE-150 cell line
  IC50: 1010 µM
KYSE-270
  IC50: > 2000 µM
KYSE-510
  IC50: 905 µM
MDA-MB-453
  IC50: > 2000 µM
MFE-280
  IC50: > 2000 µM
MG-63
  IC50: > 2000 µM
NB17
  IC50: > 2000 µM
NB7
  IC50: 901 µM
NCI-H1623
  IC50: > 2000 µM
NCI-H1651
  IC50: > 2000 µM
NCI-H1693
  IC50: > 2000 µM
NCI-H1703
  IC50: > 2000 µM
NCI-H2052
  IC50: 1490 µM
NCI-H2122
  IC50: 507 µM
NCI-H2170
  IC50: > 2000 µM
NCI-H2452
  IC50: > 2000 µM
NCI-H292
  IC50: > 2000 µM
NUGC-3
  IC50: > 2000 µM
PFSK-1
  IC50: > 2000 µM
RCM-1
  IC50: > 2000 µM
SCC-9
  IC50: > 2000 µM
SKG-IIIa
  IC50: > 2000 µM
SNU-449
  IC50: > 2000 µM
SW13
  IC50: > 2000 µM
SW48
  IC50: 932 µM
SW756
  IC50: > 2000 µM
SW837
  IC50: > 2000 µM
T98G
  IC50: > 2000 µM
A673
  IC50: > 2000 µM
BHT-101
  IC50: > 2000 µM
BT-20
  IC50: 1400 µM
BXPC-3
  IC50: 1350 µM
CAL-120
  IC50: 838 µM
CAL-39
  IC50: > 2000 µM
CAL-72
  IC50: 321 µM
U-118-MG
  IC50: 1430 µM
WM-115
  IC50: > 2000 µM
CAPAN-1
  IC50: > 2000 µM

## COc1cc(Nc2c(C#N)cnc3cc(OCCCN4CCN(C)CC4)c(OC)cc23)c(Cl)cc1Cl [BOSUTINIB]
D-247MG
  IC50: > 2 µM
DoTc2-4510
  IC50: > 2 µM
EFO-21
  IC50: > 2 µM
EFO-27
  IC50: 1.69 µM
G-361
  IC50: > 2 µM
HCC70
  IC50: > 2 µM
HCT-15
  IC50: > 2 µM
HLE
  IC50: > 2 µM
HMV-2 cell line
  IC50: > 2 µM
HSC-4
  IC50: 0.172 µM
HuO-3N1
  IC50: > 2 µM
KYSE-150 cell line
  IC50: > 2 µM
KYSE-270
  IC50: > 2 µM
KYSE-510
  IC50: > 2 µM
MDA-MB-453
  IC50: > 2 µM
MFE-280
  IC50: > 2 µM
MG-63
  IC50: > 2 µM
NB17
  IC50: > 2 µM
NB7
  IC50: 0.0823 µM
NCI-H1623
  IC50: > 2 µM
NCI-H1651
  IC50: > 2 µM
NCI-H1693
  IC50: 2 µM
NCI-H1703
  IC50: > 2 µM
NCI-H2052
  IC50: > 2 µM
NCI-H2122
  IC50: > 2 µM
NCI-H2170
  IC50: > 2 µM
NCI-H2452
  IC50: > 2 µM
NCI-H292
  IC50: 0.441 µM
NUGC-3
  IC50: 1.29 µM
OAW-28
  IC50: > 2 µM
PFSK-1
  IC50: > 2 µM
RCM-1
  IC50: > 2 µM
SCC-9
  IC50: > 2 µM
SF-295
  IC50: > 2 µM
SKG-IIIa
  IC50: > 2 µM
SNU-449
  IC50: > 2 µM
SW13
  IC50: 0.738 µM
SW48
  IC50: > 2 µM
SW756
  IC50: 0.14 µM
SW837
  IC50: > 2 µM
T98G
  IC50: > 2 µM
A673
  IC50: > 2 µM
BHT-101
  IC50: 0.466 µM
BT-20
  IC50: > 2 µM
BXPC-3
  IC50: > 2 µM
CAL-120
  IC50: > 2 µM
CAL-39
  IC50: > 2 µM
CAL-72
  IC50: > 2 µM
U-118-MG
  IC50: > 2 µM
WM-115
  IC50: > 2 µM
CAPAN-1
  IC50: > 2 µM

## CC[C@@]1(O)C(=O)OCc2c1cc1n(c2=O)Cc2cc3ccccc3nc2-1 [CAMPTOTHECIN]
D-247MG
  IC50: 0.0395 µM
DoTc2-4510
  IC50: 0.00403 µM
EFO-21
  IC50: 0.0203 µM
EFO-27
  IC50: 0.081 µM
G-361
  IC50: > 0.1 µM
HCC70
  IC50: 0.0455 µM
HCT-15
  IC50: > 0.1 µM
HLE
  IC50: 0.00575 µM
HMV-2 cell line
  IC50: 0.00889 µM
HSC-4
  IC50: 0.000182 µM
HuO-3N1
  IC50: 0.0127 µM
KYSE-270
  IC50: 0.00522 µM
KYSE-510
  IC50: 0.00675 µM
MDA-MB-453
  IC50: 0.00697 µM
MFE-280
  IC50: 0.0216 µM
MG-63
  IC50: 0.00765 µM
NB17
  IC50: 0.00218 µM
NB7
  IC50: 0.0168 µM
NCI-H1623
  IC50: 0.000748 µM
NCI-H1651
  IC50: 0.0149 µM
NCI-H1693
  IC50: 0.0267 µM
NCI-H1703
  IC50: 0.00651 µM
NCI-H2052
  IC50: 0.0283 µM
NCI-H2122
  IC50: 0.013 µM
NCI-H2170
  IC50: 0.0137 µM
NCI-H2452
  IC50: 0.0909 µM
NCI-H292
  IC50: 0.00224 µM
NUGC-3
  IC50: 0.00314 µM
OAW-28
  IC50: 0.00726 µM
PFSK-1
  IC50: 0.026 µM
RCM-1
  IC50: 0.0287 µM
SCC-9
  IC50: 0.0332 µM
SF-295
  IC50: 0.00791 µM
SKG-IIIa
  IC50: 0.00458 µM
SW13
  IC50: 0.00299 µM
SW48
  IC50: 0.00302 µM
SW756
  IC50: 0.00421 µM
SW837
  IC50: 0.0489 µM
T98G
  IC50: 0.0272 µM
A673
  IC50: 0.000815 µM
BHT-101
  IC50: 0.00182 µM
BT-20
  IC50: 0.026 µM
CAL-120
  IC50: > 0.1 µM
CAL-39
  IC50: 0.0192 µM
U-118-MG
  IC50: 0.019 µM
CAPAN-1
  IC50: 0.015 µM
